Values joined by “and” are separate entries in the source; they are usually repeats but may differ in a detail not shown here. Identical values can stand only once. Like-named read-outs stand apart in the source and are kept apart here.
How the values were obtained:
[1] = test system: human patients with retinitis pigmentosa; assay: Double masked placebo controlled dose escalation study in retinitis pigmentosa (Example VII); assay type: in vivo
Experimental: A double masked placebo controlled, randomized, dose escalation study was done in 32 human patients with retinitis pigmentosa. All patients were treated with a single intravitreal injection of 50 μl of a urea-containing formulation. Three groups of patients received different concentrations of urea. One group received a formulation containing 1.5% urea, 0.9% sodium chloride, and sterile water for injection. A second group received an identical formulation except the formulation contained 3.0% urea. A third group received an identical formulation except the formulation contained 6.0% urea. A placebo group received 50 μl of 0.9% sodium chloride.
Forty-seven percent of the patient reported an increase of at least 3 lines of best corrected visual acuity measured by ETDRS charts, whereas, only 14% of the placebo patients reported an increase of at least 3 lines of best corrected visual acuity measured by ETDRS charts.
There was no dramatic increase in the visual field of the placebo control patients.

[2] = test system: human patients with diabetes-related nonclearing vitreous hemorrhage; assay: Treatment of vitreous hemorrhage (Example IV); assay type: in vivo
Experimental: The formulations and treatments disclosed herein are also effective to treat vitreous hemorrhage. In this example, seven human patients were treated for diabetes-related nonclearing vitreous hemorrhage. Each patient received a single intravitreal injection of 100 μl of a formulation containing urea. The formulation used in this example contained 6% urea, 0.9% sodium chloride, and sterile water for injection (qs 100%).

[3] = test system: human patients with optic nerve damage caused by trauma and/or glaucoma; assay: Double masked placebo controlled dose escalation study in optic nerve damage (Example VIII); assay type: in vivo
Experimental: In accordance with the present invention, urea, thiourea, guanidine and possibly the other compounds of General Formula I above are effective to treat neuropathies (e.g., disorders or damage to nerves). In this example, 33 non sighted patients with optic nerve damage caused by trauma and/or glaucoma, with visual acuity of light perception or no light perception were administered a urea-containing formulation, as disclosed herein. The study was a double masked placebo controlled, randomized, dose escalation study conducted with 33 human patients with optic nerve damage. Patients were randomized into 5 groups, Group 1 of 5 patients, Group 2 of 4 patients, Group 3 of 8 patients, Group 4 of 8 patients and Group 5 of 8 patients. Each patient received a single intravitreal injection of 50 μl of an aqueous treatment solution, as follows:
In Six patients the vision improved from No light perception to light perception, in 2 patients the vision improved from light perception to count fingers at 12 inches, in 2 patients the vision improved from no light perception to 20/400 and 20/800 vision and in 2 patients the vision improved from light perception to 20/600 and 20/800 vision. No patients in the placebo group reported any improvement in best corrected visual acuity as measured by ETDRS charts.

[4] = test system: patients with optic nerve damage related to optic nerve tumors; assay: Treatment of optic nerve damage related to optic nerve tumors (Example VIII); assay type: in vivo, human
Experimental: In another study, three patients with long standing (6 months or longer) optic nerve damage related to optic nerve tumors were treated with a single intravitreal injection of 100 μl of a 6% urea containing formulation. All three patient treated reported a significant improvement in visual acuity after treatment. The patients' visual acuity improved from an average of Count Fingers at 12 inches to 20/200.

[5] = test system: stage 3 idiopathic macular hole patient; assay: Intravitreal urea followed by C3F8 gas in a patient with idiopathic macular hole (Example II); assay type: in vivo, human; details: for visual acuity: baseline 20/400; for size of the macular hole: baseline 450 μm
Experimental: The macular defect was classified as a stage 3 macular hole, and the patient's visual acuity was recorded at 20/400 at a baseline time point prior to urea treatment. […] Seven days after the intravitreal urea injection the patient was administered an intravitreal injection of 0.3 ml of expandable gas (C3F8).
One week after administration of the gas, the size of the macular hole had decreased from 450 μm to a smaller size of 200 μm and the patient's vision had improved from a baseline visual acuity of 20/400 to 20/80. Two weeks post treatment the size of the macular hole had decreased from 450 μm to a smaller size of 90 μm and the patient's vision had improved from a baseline visual Acuity of 20/400 to 20/70. Four weeks post treatment the size of the macular hole had decreased from 450 μm to a smaller size of 60 μm and the patient's vision had improved from a baseline visual acuity of 20/400 to 20/60.

[6] = test system: vitreous body of patients; assay: Injection of urea into the vitreous, slit lamp biomicroscopy in patients; assay type: in vivo, human
Text: (§1) In addition, disinsertion of the posterior vitreous has been observed in patients by the use of slit lamp biomicroscopy and in rabbits by specialized histological techniques after urea treatment.

[7] = 10% water solution; cited from earlier work
[8] = test system: human patients with single or multiple retinal tears; assay: Intravitreal urea 3 days before pneumatic Retinopexy in patients with retinal tears (Example I); assay type: in vivo
Experimental: All patients received pneumatic Retinopexy treatment 3 days after intravitreal injection of 1.5 mg of urea in 50 μl of aqueous solution prepared according to the formulation set forth in Table 11 above. […] Within 3-7 days after urea injection, 11/12 patients had developed PVD, only 1/12 patients had not developed PVD. Within 90 days of the urea injection that one patient also developed PVD.
Within 3 days of treatment 9/12 patients had complete retinal reattachment and macular attachment, and within 7 days all 12 patients had complete retinal reattachment and macular attachment.
(Tornambe, P. E. et. al. Opthalmology, 1989; 96: 772-783).

[9] = test system: human patients requiring pars plana vitrectomy; assay: Intravitreal urea as adjunct to vitrectomy (Example V); assay type: in vivo
Experimental: In this example, five human patients requiring pars plana vitrectomy for various indications were treated one week prior to vitrectomy with a single intravitreal injection of 100 μl of a urea in aqueous solution. The formulation contained 6% urea, 0.9% sodium chloride, and sterile water for injection (qs 100%). All patients underwent routine vitrectomies 8 to 10 days after the urea injection. The minimum waiting time between the urea injection and the vitrectomy procedure is about 1 day to 3 days.
No vitrectomy cutter was used.

[10] = cited from earlier work
[11] = test system: patients with nonproliferative diabetic retinopathy; assay: Treatment of nonproliferative diabetic retinopathy (Example VI); assay type: in vivo, human
Experimental: Sixty-nine patients with nonproliferative diabetic retinopathy were each administered a single intravitreal injection of 50 μl of a urea formulation containing 3% urea, 0.9% sodium chloride, and sterile water for injection.
The vitreous liquefaction and vitreous collapse in nonproliferative diabetic retinopathy patients would inhibit the growth and proliferation of the blood vessels, and thus inhibit the progression of diabetic retinopathy. All 69 (of the) patients were followed for six months following the procedure.

[12] = cited from earlier work; remark: listed apart in the source
[13] = test system: posterior vitreous of rabbits; assay: Injection of urea into the vitreous, specialized histological techniques in rabbits; assay type: in vivo; details: after urea treatment
Text: as §1

[14] = one week after administration of the gas

## NC(N)=O [urea]
[1]; single intravitreal 50 μl of 1.5%, 3.0% or 6.0% urea, groups pooled
  patients with increase of at least 3 lines of best corrected visual acuity measured by ETDRS charts: Forty-seven
[1]; urea-treated patients
  average improvement in the patient's visual field: 10 degrees
[2]; 100 μl of 6% urea
  rate of hemorrhagic blood clearance compared with normal clearance rates in clinical practice: significantly accelerated
[2]; single intravitreal 100 μl of 6% urea, 0.9% sodium chloride, seven patients
  patients with clearance of vitreous hemorrhage sufficient to treat the retina with photocoagulation: All seven
[3]; 50 μl of 0.2-6.0% urea
  patients whose vision improved from No light perception to light perception: Six
  patients whose vision improved from light perception to 20/600 and 20/800 vision: 2 patients
  patients whose vision improved from light perception to count fingers at 12 inches: 2 patients
  patients whose vision improved from no light perception to 20/400 and 20/800 vision: 2 patients
[3]; single intravitreal 50 μl of 0.2%, 1.5%, 3.0% or 6.0% urea
  patients with increase of best corrected visual acuity measured by ETDRS charts: Forty-three
[4]; from an average of Count Fingers at 12 inches, 100 μl of 6% urea
  average visual acuity after treatment: 20/200
[4]; single intravitreal 100 μl of 6% urea, three patients
  patients reporting a significant improvement in visual acuity after treatment: All three
[5]; 1.5 mg urea in 50 μl
  adverse effects of the intravitreal injection, ophthalmoscopic and biomicroscopic examination: no adverse effects
[5]; four weeks post treatment
  visual acuity: 20/60
  size of the macular hole: 60 μm
[5]; [14]
  visual acuity: 20/80
  size of the macular hole: 200 μm
[5]; single intravitreal 1.5 mg urea in 50 μl, Table III formulation
  time to complete Posterior Vitreous Detachment (PVD): ≤ 7 days
[5]; two weeks post treatment
  visual acuity: 20/70
  size of the macular hole: 90 μm
[6]; after injection of urea into the vitreous
  liquefaction of the vitreous body and breakdown of hyaluronic acid of the vitreous: within several days
[6]; patients, slit lamp biomicroscopy, after urea treatment
  disinsertion of the posterior vitreous: observed
[7]
  pH: 7.2
[8]; 1.5 mg urea in 50 μl intravitreal, 12 patients
  adverse effects of the intravitreal injection, ophthalmoscopic and biomicroscopic examination: no adverse effects
[8]; 6 months after Retinopexy
  average improvement of visual acuity per patient: 4.2 lines and 21 letters
[8]; 6 months post Retinopexy
  patients with improvement of more than 2 lines of visual acuity (11 letters): 64%
[8]; 90 days follow up
  occurrence of new retinal tears with associated retinal detachment: none of the patients
[8]; after urea injection, 1.5 mg in 50 μl
  time by which the one remaining patient developed PVD: ≤ 90 days
[8]; urea 3 days prior to pneumatic Retinopexy, time point not given
  patients with improvement of more than 2 lines of visual acuity (11 letters): 64%
[8]; within 3-7 days after urea injection, 1.5 mg in 50 μl
  patients who had developed PVD: 11/12
[8]; within 3 days of treatment
  patients with complete retinal reattachment and macular attachment: 9/12
[8]; within 7 days
  patients with complete retinal reattachment and macular attachment: 12 patients
[9]; 100 μl of 6% urea one week prior to vitrectomy
  decrease in surgical time relative to patients who did not receive urea: 70%
[9]; by one week after single intravitreal 100 μl of 6% urea, five patients
  vitreous liquefaction and collapse: complete vitreous liquefaction and collapse
[10]; aqueous urea solutions, develop an odor of ammonia
  stability: gradually degrade
[10]; stored under dry conditions at room temperature
  stability: stable
[11]; 50 μl of 3% urea
  time to complete vitreous liquefaction and collapse after administration: 2-4 weeks
[11]; single intravitreal 50 μl of 3% urea, 0.9% sodium chloride
  patients with complete vitreous liquefaction and collapse: 69 patients
[12]; in chloroform or ether
  solubility: practically insoluble
[12]; in water, ethanol, methanol and glycerol
  solubility: very soluble
[13]
  disinsertion of the posterior vitreous: observed
